In paper PMC6268135, “Synthesis and 5α-Reductase Inhibitory Activity of C21 Steroids Having 1,4-diene or 4,6-diene 20-ones and 4-Azasteroid 20-Oximes” (Molecules, 2011):
Like-named read-outs stand apart in the source and are kept apart here.

Key:
[1] = system: testosterone 5α-reductase prepared from rat prostates; assay: Testosterone 5α-reductase assay ([1,2,6,7-3H]testosterone as substrate);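 further: conversion of tritiated testosterone to 5α-dihydrotestosterone, separated by TLC and scintillation counted, relative to enzyme control without test sample after subtracting substrate blank without enzyme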
Protocol: Since the rat prostate extracts for measuring testosterone 5α-reductase inhibition were used in a neutral pH buffer, both isozymes were assayed in this study due to differences in its biochemical properties.
The enzyme suspension of testosterone 5α-reductase was prepared from the homogenate of the ventral prostate of male Sprague-Dawley rats using the methods previously reported [32]. Testosterone 5α-reductase inhibition was measured according to the methods previously reported [32]. A brief description follows: Sprague-Dawley male rats 7-8 weeks old were sacrificed by diethyl ether, and the ventral prostates were excised and minced with a pair of scissors. The prostates were homogenized with a glass-glass homogenizer in medium A (0.32 M sucrose, 0.1 mM dithiothreitol and 20 mM sodium phosphate, pH 6.5) to about 20% (w/v). The homogenate was filtered over 8 layers of surgical gauze, and centrifuged at 3,000 × g for 15 min. The resulting pellets were resuspended in medium A to about 25% (w/v) by triturating the suspension sequentially through an 18-gauge and then a 20-gauge needle. The assay mixture containing the test sample in ethanol (10 μL), reaction solution [525 μL, 1 mM dithiothreitol, 40 mM sodium phosphate (pH 6.5), 50 µM NADPH and 2.2 mM [1,2,6,7-^3H]testosterone, 3.15-3.89 TBq/mmol, PerkinElmer (Waltham, MA, USA)] and the enzyme suspension prepared above (40 μL), was incubated at 37°C for 1 h. After extraction with ethyl acetate (1 mL), a sample of the ethyl acetate phase (50 μL) was chromatographed on a silica plastic sheet (Kieselgel 60 F254, Merck KGaA (Darmstadt, Germany)) using the developing solvent system ethyl acetate-cyclohexane (1:1). Each of the testosterone and 5α-dihydrotestosterone areas was cut from the sheet. The ^3H radioactivity of each fragment was counted in 5 mL of Aquasol-2 (PerkinElmer) with a liquid scintillation counter [LS 6500, Beckman Coulter (Brea, CA, USA)]. Testosterone 5α-reductase inhibitory activity was calculated as follows:
where DHT and T are the ^3H radioactivity recovered in the areas of 5α-dihydrotestosterone and testosterone, respectively. rsample and rcontrol are reaction rates of the test sample and the enzyme control in which reaction rates are measured in the presence and absence of test sample, respectively, and rblank is reaction rate of the substrate blank in which reaction rate is measured in the absence of test sample and enzyme suspension. IC50 was calculated from the inhibitory activity values at several concentrations using linear regression analysis. Each enzyme reaction was carried out in duplicate.

[2] = rat prostatic testosterone 5α-reductase
[3] = read-out: IC50 (testosterone 5α-reductase inhibitory activity), rat ventral prostate enzyme suspension, pH 6.5, 37°C, 1 h, both type 1 and type 2 isozymes
[4] = read-out: IC50 (5α-reductase inhibitory activity), rat prostatic testosterone 5α-reductase

| SMILES | melting point | IC50 [1, 3] | IC50 [1, 4] | 5α-reductase inhibitory activity in words [1, 2] |
| --- | --- | --- | --- | --- |
| CC(=O)[C@H]1CC[C@H]2[C@@H]3CCC4=CC(=O)CC[C@]4(C)[C@H]3CC[C@]12C [Compound 1, 4-pregnene-3,20-dione, reference compound] |  | 6.5 nM | 6.5 nM |  |
| CC(=NO)[C@H]1CC[C@H]2[C@@H]3CCC4NC(=O)CC[C@]4(C)[C@H]3CC[C@]12C (stereo partly shown) [Compound 6, 4-Aza-pregnane-3,20-dione-20-oxime] | 194 to 196 °C | 10 nM | 10 nM | potent inhibition |
| CC(=O)C1CCC2C3CC4OC45CC(O)CCC5(C)C3CCC12C (stereo not shown) [Compound 17] |  | > 10000 nM |  | no inhibition |
| CC(=O)[C@H]1CC[C@H]2[C@@H]3C=CC4=CC(=O)C=C[C@]4(C)[C@H]3CC[C@]12C [Compound 9, 1,4,6-Pregnatriene-3,20-dione] | 144 to 146 °C | 760 nM |  | moderate inhibition |
| CC(=O)O[C@H]1CC[C@@]2(C)C(=CCC3C2CC[C@@]2(C)C3CC[C@@H]2C(C)=O)C1 (stereo partly drawn) [Compound 15, 3β-Acetoxypregnenolone] |  | > 10000 nM |  | no inhibition |
| CC(=NO)[C@H]1CCC2C3CCC4=CC(=O)C=C[C@]4(C)C3CC[C@@]21C (stereo partly shown) [Compound 22, 1,4-Pregnadiene-20-oxime] |  | 140 nM |  |  |
| CC(=O)[C@H]1CC[C@H]2[C@@H]3[C@@H]4O[C@@H]4C4=CC(=O)C=C[C@]4(C)[C@H]3CC[C@]12C [Compound 13, 6α,7α-Epoxypregna-1,4-diene-3,20-dione] | 206 to 208 °C | > 10000 nM |  | no inhibitory activity |
| CC(=O)[C@H]1CCC2C3CCC(=O)[C@](C)(CCC(=O)O)C3CC[C@@]21C (stereo partly shown) [Compound 2, 5,20-Dioxo-A-nor-3,5-secopregnane-3-oic acid] | 176 to 178 °C | > 10000 nM |  | only a weak inhibitory activity |
| CC(=O)[C@H]1CC[C@H]2[C@@H]3C=CC4=CC(=O)[C@@H]5O[C@@H]5[C@]4(C)[C@H]3CC[C@]12C [Compound 10, 1α,2α-Epoxypregna-4,6-diene-3,20-dione] | 183 to 185 °C | > 10000 nM |  | no inhibitory activity |
| CC(=O)O[C@H]1CC[C@@]2(C)C(=CCC3C2CC[C@@]2(C)C3CC[C@@H]2C(C)=NO)C1 (stereo partly shown) [Compound 16] |  | > 10000 nM |  | no inhibition |
| CC(=NO)C1CCC2C3CC4OC45CC(O)CCC5(C)C3CCC12C (stereo not shown) [Compound 18] |  | > 10000 nM |  | no inhibition |
| CC(C)(C)NC(=O)[C@H]1CC[C@H]2[C@@H]3CC[C@H]4NC(=O)C=C[C@]4(C)[C@H]3CC[C@]12C [Finasteride, finasteride, reference compound] |  | 1.2 nM | 1.2 nM |  |
| CC(=O)[C@H]1CC[C@H]2[C@@H]3CCC4NC(=O)CC[C@]4(C)[C@H]3CC[C@]12C (stereo partly shown) [Compound 5, 4-Aza-pregnane-3,20-dione] |  | 6100 nM |  | potent inhibition |
| CC(=NO)[C@H]1CCC2C3CCC4=CC(=O)CC[C@]4(C)C3CC[C@@]21C (stereo partly shown) [Compound 20] |  | 14 nM |  |  |

The next lines start with results.

| melting point | IC50 [1, 3] | IC50 [1, 4] | SMILES | 5α-reductase inhibitory activity in words [1, 2] |
| --- | --- | --- | --- | --- |
| 158 to 160 °C | 2300 nM |  | CC(=O)[C@H]1CC[C@H]2[C@@H]3CC=C4NC(=O)CC[C@]4(C)[C@H]3CC[C@]12C [Compound 3, 4-Aza-5-pregnene-3,20-dione] | moderate inhibition |
| 208 to 210 °C | 26 nM | 26 nM | CC(=NO)[C@H]1CC[C@H]2[C@@H]3CC=C4NC(=O)CC[C@]4(C)[C@H]3CC[C@]12C [Compound 4, 4-Aza-5-pregnene-3,20-dione-20-oxime] | potent inhibition |
| 174 to 176 °C | 14 nM |  | CC(=O)[C@H]1CC[C@H]2[C@@H]3CCC4NC(=O)C=C[C@]4(C)[C@H]3CC[C@]12C (stereo partly shown) [Compound 7, 4-Aza-1-pregnene-3,20-dione] | potent inhibition |
| 228 to 230 °C |  |  | CC(=NO)[C@H]1CC[C@H]2[C@@H]3C=CC4=CC(=O)[C@@H]5O[C@@H]5[C@]4(C)[C@H]3CC[C@]12C |  |
| 235 to 237 °C | 11 nM | 11 nM | CC(=NO)[C@H]1CC[C@H]2[C@@H]3CCC4NC(=O)C=C[C@]4(C)[C@H]3CC[C@]12C (stereo partly shown) [Compound 8, 4-Aza-1-pregnene-3,20-dione-20-oxime] | potent inhibition |
|  | 2100 nM |  | CC(=NO)[C@H]1CCC2C3CCC(=O)[C@](C)(CCC(=O)O)C3CC[C@@]21C (stereo partly shown) [Compound 21] |  |
| 245 to 247 °C |  |  | CC(=NO)[C@H]1CC[C@H]2[C@@H]3[C@@H]4O[C@@H]4C4=CC(=O)C=C[C@]4(C)[C@H]3CC[C@]12C |  |
